Measurements reported in PMC10352165, “Miniaturized method for the quantification of persistent organic pollutants and their metabolites in HepG2 cells: assessment of their biotransformation” (Analytical and Bioanalytical Chemistry, 2023).
In brackets after ≈: the same amount, converted by molar mass. Like-named read-outs stand apart in the source and are kept apart here.

Experiments:
HepG2 cells [1] = assay: Biotransformation experiment in HepG2 (concentration in cells and exposure medium); conditions: for Biotransformation ratio between metabolites and PHE, cells / Biotransformation ratio between metabolites and PHE, medium: HepG2, 15 mg·L^−1 PHE; for Biotransformation ratio between metabolites and BDE-47, cells / Biotransformation ratio between metabolites and BDE-47, medium: HepG2, 20 mg·L^−1 BDE-47, 48 h; for Concentration in medium, t = 0 h: contaminated medium at time 0, 20 mg·L^−1 BDE-47 nominal; for Concentration in medium, no cells: contaminated medium without cells, 20 mg·L^−1 BDE-47, 48 h
MTT cell viability assay = assay type: cell-based; conditions: human; HepG2, 48 h of exposure, MTT, polynomial fitting; read-out: LC50 (50% viability)
Protocol: (§1) Cell viability was determined by MTT assay. First, 10,000 cells/well were cultured in 96-well plates for 24 h at 37 °C and 5% CO2. After that time, the culture medium was replaced with a culture medium containing different concentrations (0–70 mg·L^−1) of PHE and BDE-47 for 48 h of exposure under the same incubated conditions. After that, 20 μL MTT solution (5 mg·mL^−1 diluted in PBS) was added and incubated for the following 4 h. Viable cellular metabolic reduction of MTT produced formazan crystals, which were dissolved in 100 μL sterile DMSO and quantified with absorbance measurement at 595 nm in a Multiskan Sky High ([…] Thermo Fisher). The cell viability was estimated by using Eq. (1). 1 %Viability=Aexp-Ablank/Acontrol-Ablank∙100 where Acontrol, Aexp, and Ablank are the mean absorbance value (6 replicates) of the control group (cells without pollutant), experimental group, and blank group (only cell culture medium), respectively. Five independent assays were carried out with the same conditions. The results have been subsequently used for the design of the biotransformation experiment.
(§2) Cell viability of each concentration was estimated by using Eq. (1) according to the absorbance values obtained in the MTT assay. The dose–response values were fitted by Origin Pro 2021 with a polynomial equation (shown in Fig. 3) from which the LC value was estimated. LC50 (50% viability) and LC30 (70% viability) were estimated by the polynomial fitting of the mean cell viability data obtained from three independent experiments. Cell viability in HepG2 decreased by 30% at 22 mg·L^−1 PHE and 38 mg·L^−1 BDE-47 and up to 50% at 38 mg·L^−1 PHE and 46 mg·L^−1 BDE-47. […] The calculated LC30 values have been subsequently used for the design of the biotransformation experiments.

HepG2 cells [2] = assay: MTT cell viability assay; assay type: cell-based; conditions: HepG2, 48 h of exposure, MTT, polynomial fitting
Protocol: as §1, §2

HepG2 cells [3] = assay: Plastic and glass plate exposure test (loss and cell uptake of compound); assay type: in vitro ADME
Protocol: Exposure of HepG2 cells (3 replicates) was performed by initially seeding approximately 2·10^6 cells in glass P100 plates and being incubated for 24 h at 37 °C (5% CO2) with 10 mL of DMEM supplemented with 10% FBS. […] The nominal exposure concentration was estimated by the previous MTT viability study, in which, more than 70% of the cells were alive at the end of the test (lethal concentration 30, LC30) to ensure good metabolizing capacity. Part of the contaminated medium was stored to determine the concentration at time 0 of exposure (“t = 0 h”). In addition, to consider possible analyte loss, a plate of control cells without pollutant (“blank”) and a plate with contaminated medium without cells (“no cells”) were incubated under the same conditions. […] Since the determination of PHE is carried out by LC-FL and its metabolites by GC–MS, the cell pellet was divided in half for each analysis. For this purpose, the adherent cells were lifted in suspension by trypsinization, and the total volume of the homogenous cell suspension was divided in half. Then, the resulting cell pellet from each fraction was collected by centrifuging at 1500 rpm for 5 min and removing the medium. However, for the determination of BDE-47 and its metabolites, the complete pellet obtained is analyzed because a simultaneous extraction is performed for both analyses. The obtained pellet was dried under a gentle stream of nitrogen, weighed on a precision analytical balance (± 0.00001 g), and stored at − 4 °C until analysis. Three independent assays were carried out with the same conditions, each with 3 replicates (plates) of the same concentration.
A major problem in in vitro cell assays is the loss of compound during the exposure process to estimate the effective concentration available to the cell and to correctly assess the toxicity and metabolization kinetics of POPs, as most of them are hydrophobic and semi-volatile. Firstly, when concentration was determined in the exposure and no cells medium samples at the end of the test (48 h) using plastic Petri dishes, a loss of 89% and 84% compared to the t = 0 h sample was found in the cells and no cells sample respectively (Table 1). This loss, similar to that found in previous studies, is mainly explained by absorption into polystyrene, the main component of in vitro culture plates or evaporation processes because these compounds have a Henry law constant (KH) between 1 and 10 Pa·m^3·mol^−1 [11] (7.90 Pa·m^3·mol^−1 for PHE at 35 °C [13] and 3.78 Pa·m^3·mol^−1 for BDE-47 at 40 °C [40]). The remaining concentration in the medium that had not been lost by evaporation or absorbed into the cells was retained in the protein serum. […] A fraction dissolved in the medium accessible to the cells of 3.5% for anthracene (log Kow 4.5) was obtained introducing the conditions of this work into the chemical partitioning model developed by Fischer et al.. […] Therefore, it should be considered to avoid the use of plastic in tests that requires P100 plates with a very high surface area/volume ratio of the medium when studying neutral chemicals with a log Kow > 3, as is the case of PHE (log Kow 4.46 [39]) and BDE-47 (log Kow 6.81 [26]).
Using glass plates, a loss of 47% and 26% for cells and no cells samples, respectively, was found at the end of the assay (48 h) (Table 1), and the concentration absorbed by the cells increased from 4 ± 1 to 18 ± 3%. For BDE-47, a loss of only 14% because of volatilization and an absorbed concentration of 24 ± 2% resulted using a glass plate, as BDE-47 is less volatile and more hydrophobic than PHE, favoring cell uptake. Birch et al. calculated a cell-free fraction of 13% for PHE in HepG2 cells with 10% of FBS in the medium considering the evaporation losses using glass vials. […]

[4] = at 40 °C; cited from earlier work
[5] = cited from earlier work
HepG2 = conditions: HepG2, BDE-47, cited from earlier work
[6] = HepG2 exposed to 15 mg·L^−1 PHE, 48 h, metabolites
[7] = HepG2 exposed to 20 mg·L^−1 BDE-47, 48 h, metabolites
[8] = HepG2 exposed to 20 mg·L^−1 BDE-47, 48 h, parent compound

Compound | Biotransformation ratio between metabolites and PHE, cells (HepG2 cells [1]; 48 h) | Biotransformation ratio between metabolites and PHE, medium (HepG2 cells [1]; 48 h) | Concentration in cells, samples (n = 3) (HepG2 cells [1]; [6]) | Concentration in medium, samples (HepG2 cells [1]; [6]) | Concentration in cells, samples (HepG2 cells [1]; [7]) | Concentration in medium, samples (HepG2 cells [1]; [7]) | further results
Oc1cccc2c1ccc1ccccc12 [1-OH-PHE] | 0.01 | 0.22 | 72 ± 27 ng/g | 7.7 ± 0.9 µg/L |  |  | 
Oc1ccc2c(ccc3ccccc32)c1 [2-OH-PHE] | 0.06 | 0.15 | 284 ± 92 ng/g | 5.2 ± 0.9 µg/L |  |  | 
Oc1cc(Br)ccc1Oc1ccc(Br)cc1Br [2’-OH-BDE-28] |  |  |  |  | 0.11 ± 0.09 ng/g | 3.2 ± 0.2 µg/L | 
COc1c(Br)ccc(Oc2ccc(Br)cc2Br)c1Br [3-MeO-BDE-47] |  |  |  |  |  |  | metabolite detection after exposure (in words) (HepG2 cells [1]; HepG2 exposed to 20 mg·L^−1 BDE-47, 48 h): No quantifiable amounts
Oc1c(Br)ccc(Oc2ccc(Br)cc2Br)c1Br [3-OH-BDE-47] |  |  |  |  | 0.21 ± 0.10 ng/g | 4.3 ± 0.2 µg/L | Biotransformation ratio between metabolites and BDE-47, cells (HepG2 cells [1]): 0.01; Biotransformation ratio between metabolites and BDE-47, medium (HepG2 cells [1]): 0.04
Oc1ccc2ccc3ccccc3c2c1 [3-OH-PHE] | 0.04 | 0.13 | 195 ± 33 ng/g | 4.0 ± 0.7 µg/L |  |  | 
Oc1cccc2ccc3ccccc3c12 [4-OH-PHE] | 0.05 | 0.16 | 260 ± 85 ng/g | 5 ± 1 µg/L |  |  | 
COc1cc(Oc2ccc(Br)cc2Br)c(Br)cc1Br [5-MeO-BDE-47] |  |  |  |  | 0.12 ± 0.02 ng/g | 1.2 ± 0.9 µg/L | Biotransformation ratio between metabolites and BDE-47, cells (HepG2 cells [1]): 0.03; Biotransformation ratio between metabolites and BDE-47, medium (HepG2 cells [1]): 0.01
Oc1cc(Oc2ccc(Br)cc2Br)c(Br)cc1Br [5-OH-BDE-47] |  |  |  |  | 0.27 ± 0.08 ng/g | 6.2 ± 0.5 µg/L | Biotransformation ratio between metabolites and BDE-47, cells (HepG2 cells [1]): 0.01; Biotransformation ratio between metabolites and BDE-47, medium (HepG2 cells [1]): 0.06
Brc1ccc(Oc2ccc(Br)cc2Br)cc1 [BDE-28] |  |  |  |  | 18 ± 5 ng/g | 577 ± 92 µg/L | Concentration in medium, t = 0 h (HepG2 cells [1]; metabolites): 0.662 ± 0.018 µg/mL; Concentration in medium, no cells (HepG2 cells [1]; metabolites): 0.651 ± 0.036 µg/mL
Brc1ccc(Oc2ccc(Br)cc2Br)c(Br)c1 [BDE-47, 2,2′,4,4′-tetrabromodiphenyl ether] |  |  |  |  |  |  | CC50 at 48 h (MTT cell viability assay): 46 µg/mL (≈ 94.7 µM); LC30 (70% viability; cell viability decreased by 30%) (HepG2 cells [2]): 38 mg/L (≈ 78.2 µM); loss because of volatilization (HepG2 cells [3]; glass plate): 14%; concentration absorbed by the cells (HepG2 cells [3]; glass plates, 48 h): 24 ± 2%; Henry law constant (KH) [4]: 3.78 Pa·m^3·mol^−1; log Kow [5]: 6.81; LC50 (HepG2): 48.6 mg/L (≈ 100 µM); CC50 (HepG2; read-out: LC50 (the source's name)): 100 µM; Concentration in cells, samples (HepG2 cells [1]; [8]): 737000 ± 120000 ng/g; Concentration in medium, samples (HepG2 cells [1]; [8]): 13000 ± 2000 µg/L; Concentration in medium, t = 0 h (HepG2 cells [1]): 16 ± 1 µg/mL; Concentration in medium, no cells (HepG2 cells [1]): 14 ± 3 µg/mL
c1ccc2cc3ccccc3cc2c1 [anthracene, reference compound] |  |  |  |  |  |  | log Kow ([5]; value used with the partitioning model): 4.5
